{"source": "patent US9468670B2", "about": "“Melatonin-based treatment and diagnosis of bile duct disease” (Texas A&M University System, priority 2011, dated 2016)", "key": {"[1]": {"tested_on": "AANAT", "experiment": "AANAT morpholino in normal rats with or without CCl4 (liver sections, qPCR, immunoblots)", "assay_type": "in vivo, rat", "experimental": "Methods: Normal rats were treated for 1 wk with AANAT morpholino (to reduce the biliary expression of AANAT) or scrambled morpholino (1 mg/kg BW/day) by a portal vein catheter before receiving a single dose of mineral oil or CCl4 (0.4 ml by gavage 1:1 in mineral oil/100 gm BW). Two days later, in liver sections the following was evaluated: (i) the hepatic expression of AANAT; and (ii) the percentage of TUNEL-positive cholangiocytes, and IBDM. In total liver tissue, the quantitative expression of AANAT, PCNA, Bax and Bcl-2 was studied by qPCR and immunoblots. In mouse cholangiocyte lines (NMC) stably overexpressing AANAT the expression of AANAT and CLOCK genes, melatonin secretion and biliary growth were studied after 48 hr incubation."}, "[2]": {"tested_on": "SR, CFTR, Cl−/HCO3− AE2, VEGF-A/C", "experiment": "Expression of PCNA, SR, CFTR, Cl−/HCO3− AE2, VEGF-A/C in liver sections, liver tissue and cholangiocytes of Morpholino-treated rats", "assay_type": "in vivo, rat", "conditions": "normal rats, 1 week", "experimental": "In separate experiments, normal rats treated with Vivo-Morpholino sequences of AANAT (5′-[…] (SEQ ID NO:1), to reduce the biliary expression of AANAT) or Morpholino mismatched (5′-[…] (SEQ ID NO:2)) (Gene Tools LCC) (1 mg/Kg BW/day) for 1 week via an implanted portal vein catheter. Serum, liver tissue, cholangiocytes, kidney, spleen, small intestine, stomach and heart were collected. Since our goal was to knock-down AANAT expression in the liver without inhibiting AANAT expression in other organs, we used a lower dose (1 mg/Kg/day) of Vivo-Morpholino than that described in the original study (3.0 mg/kg/day (Arora et al., 2002). This approach minimizes the amount of Vivo-Morpholino that circulates outside of the liver after slow infusion into the portal vein. See below for the surgical procedure for the implantation of the portal vein catheter by which AANAT Vivo-Morpholino or Morpholino mismatched was administered.\nBy real-time PCR (Francis et al., 2008), the expression of PCNA, SR, CFTR, Cl^−/HCO3^− AE2, VEGF-A/C was evaluated in total RNA from: (i) cholangiocytes from normal rats, and BDL rats treated with melatonin; and (ii) liver tissue and cholangiocytes from rats treated with mismatch or AANAT Vivo-Morpholino for 1 week. A ΔΔCT analysis was obtained using normal cholangiocytes or normal total liver as control samples (Francis et al., 2008). The primers for rat PCNA, SR, CFTR, Cl^−/HCO3^− AE2, VEGF-A/C (SABiosciences) were designed according to the NCBI GenBank Accession numbers: NM_022381 (PCNA); NM_031115 (SR); NM_017048 (Cl^−/HCO3^− AE2); XM_001059206 (CFTR); NM_031836 (VEGF-A); and NM_053653 (VEGF-C). The percentage of cholangiocytes positive for SR, CFTR, Cl^−/HCO3^− AE2 and VEGF-A/C was evaluated in liver sections: when 0%-5% of bile ducts were positive a negative score was assigned; a +/−score was assigned when 6%-10% of ducts were positive; a +score was assigned when 11%-30% of bile ducts were positive (Glaser et al., 2009)."}, "[3]": {"conditions": "normal rats vs. scrambled morpholino"}}}
{"substance": "AANAT Vivo-Morpholino: Vivo-Morpholino sequence of AANAT 5′-GTTCCCCAGCTTTGGAAGTGGTCCC (SEQ ID NO:1), to reduce the biliary expression of AANAT (all phosphorodiamidate morpholino (PMO); Vivo-Morpholino delivery moiety attached, position not given here, further chemistry not fully specified)", "values": [{"measurement": "AANAT expression in liver tissue", "setting": "[1]; [3]", "result": "decreased"}, {"measurement": "PCNA expression in liver tissue", "setting": "[1]; [3]", "result": "increased"}, {"measurement": "IBDM", "setting": "[1]; normal rats, 1 mg/kg BW/day for 1 wk by portal vein catheter, vs. controls", "result": "enhanced"}, {"measurement": "Biliary apoptosis in response to CCl4", "setting": "[1]; rats, 1 mg/kg BW/day for 1 wk then single dose of CCl4", "result": "absence"}, {"measurement": "Immunoreactivity of cholangiocytes to CFTR", "setting": "[2]", "result": "+ (a +score was assigned when 11%-30% of bile ducts were positive)"}, {"measurement": "Immunoreactivity of cholangiocytes to Cl−HCO3− AE2", "setting": "[2]", "result": "+ (a +score was assigned when 11%-30% of bile ducts were positive)"}, {"measurement": "Immunoreactivity of cholangiocytes to SR", "setting": "[2]", "result": "+ (a +score was assigned when 11%-30% of bile ducts were positive)"}, {"measurement": "Immunoreactivity of cholangiocytes to VEGF-A", "setting": "[2]", "result": "+ (a +score was assigned when 11%-30% of bile ducts were positive)"}, {"measurement": "Immunoreactivity of cholangiocytes to VEGF-C", "setting": "[2]", "result": "+ (a +score was assigned when 11%-30% of bile ducts were positive)"}]}
